Here are results for 58 molecules from the RepoRT retention time repository (doi:10.1016/j.chroma.2019.01.023).

Settings in all cases: stereoisomer not certain
The nature of series [1]: HILIC, Waters ACQUITY UPLC BEH Amide, 150 × 2.1 mm, 1.7 µm, 40 °C, 0.5 mL/min, estimated dead time 0.66 min; A: 5% water + 95% acetonitrile; B: 70% water + 30% acetonitrile + 10 mM ammonium formate, pH 6.5; gradient (min/%B) 0/0 2/0 20/70 23/70 24/0 31/0.
Series [2] can be described thus: RP, Phenomenex Kinetex C18, 150 × 2.1 mm, 1.7 µm, 30 °C, 0.3 mL/min, estimated dead time 1.1 min; A: water + 0.1% formic acid, pH 3; B: acetonitrile + 0.1% formic acid, pH 3; gradient (min/%B) 0/2 14/100 17/100 17.1/2 25/2.
Series [3] is described as follows: HILIC, Merck SeQuant ZIC-pHILIC, 150 × 2.1 mm, 5 µm, 40 °C, 0.3 mL/min, estimated dead time 1.1 min; A: acetonitrile; B: water + 2.8 mM ammonium formate, pH 9; gradient (min/%B) 0/5 1/5 10/51 13/51 13.1/5 20/5.

Counter-ions that a name gives are not always drawn.

As for `C=CC1=C(C)C(C=c2[nH]c(=Cc3[nH]c(C=C4NC(=O)C(C)=C4C=C)c(C)c3CCC(=O)O)c(CCC(=O)O)c2C)=NC1=O` [BILIVERDIN], the LC retention time in series [1] was 1.13 min; in series [2] it was 9.08 min.
Consider `CC(O)(CC(=O)O)C(=O)O` (stereo unspecified) [CITRAMALATE], for which the LC retention time was 8.8 min in series [3] and 1.94 min in series [2].
Take `Nc1ncnc2c1ncn2C1OC(COP(=O)(O)O)C(O)C1O` (stereo unspecified) [ADENOSINE-MONOPHOSPHATE]: the LC retention time in series [3] was 8.23 min; in series [2] it was 1.41 min.
For the molecule `C[N+](C)(C)CC(CC(=O)[O-])OC(=O)CCCC(=O)O` (stereo unspecified) [GLUTARYLCARNITINE], the LC retention time in series [1] was 11.9 min; in series [2], 2.56 min.
As to `O=c1cc[nH]c(=O)[nH]1` [URACIL], the values for the LC retention time in series [1], in series [3] and in series [2] were 1.83 min, 4.25 min and 1.41 min, respectively.
With `Nc1ncnc2c1ncn2C1OC(CO)C(O)C1O` (stereo unspecified) [ADENOSINE], the LC retention time in series [1] was 3.85 min; in series [3] it was 5.92 min; in series [2] it was 2.34 min.
With `NC(=O)c1ncn(C2OC(COP(=O)(O)O)C(O)C2O)c1N` (stereo unspecified) [AICAR], the LC retention time was 8.82 min in series [3] and 1.38 min in series [2].
In the case of `Nc1c([O-])cccc1C(=O)O` [3-HYDROXYANTHRANILATE], the LC retention time was 1.39 min in series [1], 6.24 min in series [3] and 3.68 min in series [2].
For the molecule `O=C(O)CCCCCCCCCO` [10-HYDROXYDECANOATE], the LC retention time in series [1] was 1 min; in series [3], 1.44 min; in series [2], 7.13 min.
As for `O=C(O)Cc1ccc(O)cc1` [P-HYDROXYPHENYLACETATE], the LC retention time is 5.76 min in series [3] and 4.59 min in series [2].
Consider `O=c1cccc(O)[nH]1` [2,6-DIHYDROXYPYRIDINE], for which the values for the LC retention time in series [1], in series [3] and in series [2] were 4.81 min, 6.67 min and 1.95 min, respectively.
Consider `O=C(O)CC(O)(CC(=O)O)C(=O)O` [CITRATE], for which the LC retention time in series [3] is 10.2 min; in series [2], 1.57 min.
As to `CCC(C)C(=O)C(=O)[O-]` (stereo unspecified) [3-METHYL-2-OXOVALERATE], the figures for the LC retention time in series [1] and in series [2] were 1.83 min and 4.14 min, respectively.
The like results for `CC1(O)CCOC(=O)C1` (stereo unspecified) [MEVALOLACTONE] were, in that order, 0.89 min and 2.04 min.
Take `O=C(O)c1cc(O)ccc1[O-]` [2,5-DIHYDROXYBENZOATE]: the LC retention time in series [3] was 6.29 min; in series [2] it was 4.46 min.
The like results for `Oc1ccccc1O` [PYROCATECHOL] were, in that order, 8.04 min and 3.77 min.
Take `CC(CCC(=O)O)C1CCC2C3CCC4CC(O)CCC4(C)C3CCC12C` (stereo unspecified) [LITHOCHOLATE]: the LC retention time in series [1] was 0.84 min; in series [2] it was 12.8 min.
Regarding `Nc1nc2c(ncn2C2CC(O)C(COP(=O)(O)O)O2)c(=O)[nH]1` (stereo unspecified) [DEOXYGUANOSINE-MONOPHOSPHATE], the LC retention time in series [3] is 8.92 min; in series [2], 1.67 min.
As to `O=c1ccn(C2CC(O)C(COP(=O)(O)O)O2)c(=O)[nH]1` (stereo unspecified) [DEOXYURIDINE-MONOPHOSPHATE], the LC retention time is 8.2 min in series [3] and 1.41 min in series [2].
On to `O=C([O-])C=CC(=O)[O-]` [MALEATE], for which the values for the LC retention time in series [3] and in series [2] were 2.45 min and 1.53 min, respectively.
The like results for `NC(=O)c1ccc[n+](C2OC(COP(=O)(O)OP(=O)([O-])OCC3OC(n4cnc5c(N)ncnc54)C(O)C3O)C(O)C2O)c1` (stereo not drawn) [BETA-NICOTINAMIDE ADENINE DINUCLEOTIDE] were, in that order, 8.52 min and 1.4 min.
Regarding `Nc1ccn(C2CC(O)C(COP(=O)(O)O)O2)c(=O)n1` (stereo unspecified) [DEOXYCYTIDINE MONOPHOSPHATE], the LC retention time in series [3] is 8.61 min; in series [2] it was 1.4 min.
The like results for `O=C(O)c1cccc([O-])c1` [3-HYDROXYBENZOATE] were, in that order, 6.39 min and 4.87 min.
The like results for `O=C(O)C=CC(=O)O` [FUMARATE] were, in that order, 9.5 min and 1.88 min.
The like results for `CCC(NC(=O)CCC([NH3+])C(=O)[O-])C(=O)NCC(=O)[O-]` (stereo unspecified) [OPHTHALMATE] were, in that order, 8.32 min and 1.58 min.
Consider `O=C(O)Cc1ccccc1O` [2-HYDROXYPHENYLACETATE], for which the results for the LC retention time in series [1] and in series [2] were 0.9 min and 4.46 min, respectively.
With `OCC(O)c1ccc(O)c(O)c1` (stereo unspecified) [3,4-DIHYDROXYPHENYLGLYCOL], the LC retention time was 6.22 min in series [3] and 1.82 min in series [2].
For `O=C([O-])C(O)c1ccccc1` (stereo unspecified) [MANDELATE], the LC retention time in series [3] is 4.83 min; in series [2], 4.45 min.
Consider `CCC(C)C(N)C(=O)O` (stereo unspecified) [ISOLEUCINE], for which the LC retention time in series [3] was 7.18 min; in series [2], 1.9 min.
Take `Nc1ncnc2c1ncn2C1CC(O)C(COP(=O)(O)O)O1` (stereo unspecified) [DEOXYADENOSINE MONOPHOSPHATE]: the LC retention time is 7.95 min in series [3] and 1.55 min in series [2].
In the case of `NC(N)=NCCCC(=O)O` [4-GUANIDINOBUTANOATE], the results for the LC retention time in series [1] and in series [2] were 10.1 min and 1.39 min, respectively.
Consider `NCCc1ccc(O)c(O)c1` [DOPAMINE], for which the figures for the LC retention time in series [1] and in series [2] were 8.68 min and 1.62 min, respectively.
Take `CC=CC=CC(=O)[O-]` [SORBATE]: the LC retention time in series [3] was 1.73 min; in series [2] it was 4.51 min.
The like results for `Nc1nc2c(ncn2C2OC(COP(=O)(O)O)C(O)C2O)c(=O)[nH]1` (stereo unspecified) [GUANOSINE MONOPHOSPHATE] were, in that order, 9.41 min and 1.41 min.
The like results for `O=C(C=Cc1ccc(O)c(O)c1)OC(Cc1ccc(O)c(O)c1)C(=O)O` (stereo unspecified) [ROSMARINATE] were, in that order, 7.55 min and 6.25 min.
Turning to `CC(=O)NC(C)C(=O)O` (stereo unspecified) [N-ACETYLALANINE], the results for the LC retention time in series [1] and in series [2] were 4.75 min and 1.97 min, respectively.
Take `O=C(O)Cc1ccc(O)c(O)c1` [3,4-DIHYDROXYPHENYLACETATE]: the LC retention time in series [3] was 7.81 min; in series [2], 3.93 min.
The like results for `Nc1ccccc1S(=O)(=O)O` [ANILINE-2-SULFONATE] were, in that order, 5.89 min and 2.04 min.
With `O=c1[nH]c(=O)c2ncn(C3OC(COP(=O)(O)O)C(O)C3O)c2[nH]1` (stereo unspecified) [XANTHOSINE-MONOPHOSPHATE], the LC retention time is 10.2 min in series [3] and 1.45 min in series [2].
With `O=C(O)CCCC(=O)O` [GLUTARATE], the LC retention time in series [1] is 2 min; in series [2] it was 2.92 min.
In the case of `O=C(O)Cc1cccc(O)c1` [3-HYDROXYPHENYLACETATE], the LC retention time in series [3] was 5.88 min; in series [2], 4.82 min.
The like results for `O=C(O)C(O)c1ccc(O)c(O)c1` (stereo unspecified) [3,4 DIHYDROXYMANDELATE] were, in that order, 8.57 min and 1.7 min.
Take `O=C(O)CCC(=O)O` [SUCCINATE]: the LC retention time in series [1] is 3.9 min; in series [2], 1.95 min.
Regarding `Cc1cn(C2CC(O)C(COP(=O)(O)OP(=O)(O)OC3OC(CO)C(O)C(O)C3O)O2)c(=O)[nH]c1=O` [DTDP-D-GLUCOSE], the LC retention time in series [3] was 8.93 min; in series [2], 1.52 min.
In the case of `Nc1ncnc2c1ncn2C1OC(CSCCC([NH3+])C(=O)[O-])C(O)C1O` (stereo unspecified) [S-ADENOSYLHOMOCYSTEINE], the LC retention time in series [3] is 8.51 min; in series [2], 1.97 min.
Turning to `O=S(=O)(O)Oc1c[nH]c2ccccc12` [INDOXYL SULFATE], the LC retention time in series [2] was 4.62 min.
Still for that read-out and setting: under `CC(=O)C1CCC2C3CC=C4CC(OS(=O)(=O)O)CCC4(C)C3CCC12C` (stereo unspecified) [PREGNENOLONE SULFATE] stands 8.69 min.
`COc1cc(C(O)C(=O)O)ccc1O` (stereo unspecified) [3-METHOXY-4-HYDROXYMANDELATE]: the figures for the LC retention time in series [3] and in series [2] were 6.9 min and 2.94 min, respectively.
`CCCCCCCCCC(C)=O` [2-UNDECANONE]: the LC retention time in series [2] is 8.62 min.
Turning to `O=C(O)C(=O)Cc1ccccc1` [PHENYLPYRUVATE], the LC retention time in series [3] is 5.27 min; in series [2], 4.94 min.
Consider `O=C(O)c1ccc2ccccc2c1[O-]` [1-HYDROXY-2-NAPHTHOATE], for which the LC retention time in series [3] was 1.49 min; in series [2] it was 9.28 min.
The like results for `NC(CCC(=O)NC(CS)C(=O)NCC(=O)O)C(=O)O` (stereo unspecified) [GLUTATHIONE REDUCED] were, in that order, 8.59 min and 1.46 min.
As for `CC(=O)N[C@@H]1[C@@H](O)[C@H](O)[C@@H](CO)O[C@H]1N` [2-ACETAMIDO-2-DEOXY-BETA-D-GLUCOSYLAMINE], the LC retention time in series [2] was 9.58 min.
With `CC(=O)NC(CS)C(=O)O` (stereo unspecified) [N-ACETYLCYSTEINE], the LC retention time in series [1] was 1.88 min; in series [2] it was 2.62 min.
The like results for `O=C(O)CCCCCCCCCCCO` [OMEGA-HYDROXYDODECANOATE] were, in that order, 0.84 min and 8.62 min.
`O=C(O)c1cccc(O)c1[O-]` [2,3-DIHYDROXYBENZOATE]: the LC retention time in series [3] is 5.74 min; in series [2], 4.92 min.
For the molecule `O=C(O)C1CCCCN1` (stereo unspecified) [PIPECOLATE], the LC retention time in series [2] is 1.38 min.
In the case of `Oc1ccc(O)cc1` [HYDROQUINONE], the LC retention time in series [3] is 6.29 min; in series [2], 4.46 min.
